Assay results taken from patent US9708312B2, “Dihydropyrimidinoisoquinolinones and pharmaceutical compositions thereof for the treatment of inflammatory disorders (GPR84 antagonists)” (GALAPAGOS NV, priority 2012, dated 2017).

molecular target: T1, GPR84 (Homo sapiens, UniProt Q9NQS5); assay: GPR84 [35S]GTPγS binding assay, HEPES buffer; format: biochemical; conditions: 3,3′ di indolylmethane at EC80, membranes from stable cell line over expressing GPR84
T1 construct: expressed in transfected cells
T1 sequence (Q9NQS5 whole entry): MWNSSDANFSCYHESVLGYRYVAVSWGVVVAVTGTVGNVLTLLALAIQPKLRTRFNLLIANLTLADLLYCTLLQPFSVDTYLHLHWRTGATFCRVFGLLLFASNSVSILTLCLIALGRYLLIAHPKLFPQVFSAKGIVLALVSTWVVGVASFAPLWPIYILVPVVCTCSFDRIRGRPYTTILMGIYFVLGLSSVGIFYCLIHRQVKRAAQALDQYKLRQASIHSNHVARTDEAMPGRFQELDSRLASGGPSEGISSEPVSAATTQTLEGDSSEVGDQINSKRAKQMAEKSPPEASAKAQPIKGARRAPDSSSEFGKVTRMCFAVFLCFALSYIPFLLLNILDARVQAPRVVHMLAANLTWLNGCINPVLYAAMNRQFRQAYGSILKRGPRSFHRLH
Summary of the method: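 Membranes from a stable GPR84-overexpressing cell line (20 μg/well), pre-incubated with 0.1 μM GDP for 15 min at 4° C, mixed with 0.1 nM [35S]GTPγS and WGA SpA beads in 20 mM HEPES pH 7.4, 5 mM MgCl2, 250 mM NaCl, 0.05% BSA, 75 ug/mL saponin. Incubated 90 min at room temperature; scintillation proximity read after centrifugation.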

Structure (SMILES)	IC50 [nM]
O=c1nc(OCC2COc3ncccc3O2)cc2n1CCc1cc(C3=CCOCC3)ccc1-2 (stereo not shown) [compound 161, 2-(2,3-dihydro-[1,4]dioxino[2,3-b]pyridin-2-ylmethoxy)-9-(3,6-dihydro-2H-pyran-4-yl)-6,7-dihydro-pyrimido[6,1-a]isoquinolin-4-one]	0.01 to 100
N#Cc1ccc(-c2ccc3c(c2)CCn2c-3cc(OCC3COc4ncccc4O3)nc2=O)cn1 (stereo not shown) [compound 162, 5-[2-(2,3-dihydro-[1,4]dioxino[2,3-b]pyridin-2-ylmethoxy)-4-oxo-6,7-dihydro-pyrimido[6,1-a]isoquinolin-9-yl]-pyridine-2-carbonitrile]	0.01 to 100
CCOc1ncccc1-c1ccc2c(c1)CCn1c-2cc(OCC2COc3ncccc3O2)nc1=O (stereo not shown) [compound 163, 2-(2,3-dihydro-[1,4]dioxino[2,3-b]pyridin-2-ylmethoxy)-9-(2-ethoxy-pyridin-3-yl)-6,7-dihydro-pyrimido[6,1-a]isoquinolin-4-one]	0.01 to 100
CCOc1ccc(-c2ccc3c(c2)CCn2c-3cc(OCC3COc4ncccc4O3)nc2=O)cn1 (stereo not shown) [compound 164, 2-(2,3-dihydro-[1,4]dioxino[2,3-b]pyridin-2-ylmethoxy)-9-(6-ethoxy-pyridin-3-yl)-6,7-dihydro-pyrimido[6,1-a]isoquinolin-4-one]	0.01 to 100
O=c1nc(OCC2COc3ncccc3O2)cc2n1CCc1cc(-c3ccc(N4CCOCC4)nc3)ccc1-2 (stereo not shown) [compound 165, 2-(2,3-dihydro-[1,4]dioxino[2,3-b]pyridin-2-ylmethoxy)-9-(6-morpholin-4-yl-pyridin-3-yl)-6,7-dihydro-pyrimido[6,1-a]isoquinolin-4-one]	0.01 to 100
COc1ncc(-c2ccc3c(c2)CCn2c-3cc(OCC3COc4ncccc4O3)nc2=O)cn1 (stereo not shown) [compound 166, 2-(2,3-dihydro-[1,4]dioxino[2,3-b]pyridin-2-ylmethoxy)-9-(2-methoxy-pyrimidin-5-yl)-6,7-dihydro-pyrimido[6,1-a]isoquinolin-4-one]	0.01 to 100
COc1cccc(-c2ccc3c(c2)CCn2c-3cc(OCC3COc4ncccc4O3)nc2=O)c1OC (stereo not shown) [compound 167, 2-(2,3-dihydro-[1,4]dioxino[2,3-b]pyridin-2-ylmethoxy)-9-(2,3-dimethoxy-phenyl)-6,7-dihydro-pyrimido[6,1-a]isoquinolin-4-one]	0.01 to 100
COc1ccc(OC)c(-c2ccc3c(c2)CCn2c-3cc(OCC3COc4ncccc4O3)nc2=O)c1 (stereo not shown) [compound 168, 2-(2,3-dihydro-[1,4]dioxino[2,3-b]pyridin-2-ylmethoxy)-9-(2,5-dimethoxy-phenyl)-6,7-dihydro-pyrimido[6,1-a]isoquinolin-4-one]	0.01 to 100
N#CCCOCC#Cc1ccc2c(c1)CCn1c-2cc(OCC2COc3ncccc3O2)nc1=O (stereo not shown) [compound 170, 3-{3-[2-(2,3-dihydro-[1,4]dioxino[2,3-b]pyridin-2-ylmethoxy)-4-oxo-6,7-dihydro-4H-pyrimido[6,1-a]isoquinolin-9-yl]-prop-2-ynyloxy}-propionitrile]	0.01 to 100
CNCC#Cc1ccc2c(c1)CCn1c-2cc(OCC2COc3ncccc3O2)nc1=O (stereo not shown) [compound 171, 2-(2,3-dihydro-[1,4]dioxino[2,3-b]pyridin-2-ylmethoxy)-9-(3-methylamino-prop-1-ynyl)-6,7-dihydro-pyrimido[6,1-a]isoquinolin-4-one]	500 to 1000
CN(C)CC#Cc1ccc2c(c1)CCn1c-2cc(OCC2COc3ncccc3O2)nc1=O (stereo not shown) [compound 172, 2-(2,3-dihydro-[1,4]dioxino[2,3-b]pyridin-2-ylmethoxy)-9-(3-dimethylamino-prop-1-ynyl)-6,7-dihydro-pyrimido[6,1-a]isoquinolin-4-one]	0.01 to 100
CN(CC#Cc1ccc2c(c1)CCn1c-2cc(OCC2COc3ncccc3O2)nc1=O)Cc1ccccc1 (stereo not shown) [compound 173, 9-[3-(benzyl-methyl-amino)-prop-1-ynyl]-2-(2,3-dihydro-[1,4]dioxino[2,3-b]pyridin-2-ylmethoxy)-6,7-dihydro-pyrimido[6,1-a]isoquinolin-4-one]	100 to 500
O=c1nc(OCC2COc3ncccc3O2)cc2n1CCc1cc(C#CCN3CCS(=O)(=O)CC3)ccc1-2 (stereo not shown) [compound 174, 2-(2,3-dihydro-[1,4]dioxino[2,3-b]pyridin-2-ylmethoxy)-9-[3-(1,1-dioxo-thiomorpholin-4-yl)-prop-1-ynyl]-6,7-dihydro-pyrimido[6,1-a]isoquinolin-4-one]	100 to 500
NC(=O)NCC#Cc1ccc2c(c1)CCn1c-2cc(OCC2COc3ncccc3O2)nc1=O (stereo not shown) [compound 175, {3-[2-(2,3-Dihydro-[1,4]dioxino[2,3-b]pyridin-2-ylmethoxy)-4-oxo-6,7-dihydro-4H-pyrimido[6,1-a]isoquinolin-9-yl]-prop-2-ynyl}-urea]	0.01 to 100
O=C1CN(CC#Cc2ccc3c(c2)CCn2c-3cc(OCC3COc4ncccc4O3)nc2=O)C(=O)N1 (stereo not shown) [compound 176, 1-{3-[2-(2,3-Dihydro-[1,4]dioxino[2,3-b]pyridin-2-ylmethoxy)-4-oxo-6,7-dihydro-4H-pyrimido[6,1-a]isoquinolin-9-yl]-prop-2-ynyl}-imidazolidine-2,4-dione]	100 to 500
CCN(CC)CC#Cc1ccc2c(c1)CCn1c-2cc(OCC2COc3ncccc3O2)nc1=O (stereo not shown) [compound 177, 9-(3-diethylamino-prop-1-ynyl)-2-(2,3-dihydro-[1,4]dioxino[2,3-b]pyridin-2-ylmethoxy)-6,7-dihydro-pyrimido[6,1-a]isoquinolin-4-one]	100 to 500
CC(C)(N)C#Cc1ccc2c(c1)CCn1c-2cc(OCC2COc3ncccc3O2)nc1=O (stereo not shown) [compound 178, 9-(3-amino-3-methyl-but-1-ynyl)-2-(2,3-dihydro-[1,4]dioxino[2,3-b]pyridin-2-ylmethoxy)-6,7-dihydro-pyrimido[6,1-a]isoquinolin-4-one]	100 to 500
O=c1nc(OCC2COc3ncccc3O2)cc2n1CCc1cc(OCC3CCCCO3)ccc1-2 (stereo not shown) [compound 179, 2-(2,3-dihydro-[1,4]dioxino[2,3-b]pyridin-2-ylmethoxy)-9-(tetrahydro-pyran-2-ylmethoxy)-6,7-dihydro-pyrimido[6,1-a]isoquinolin-4-one]	0.01 to 100
NC1(C#Cc2ccc3c(c2)CCn2c-3cc(OCC3COc4ncccc4O3)nc2=O)CCCCC1 (stereo not shown) [compound 184, 9-(1-amino-cyclohexylethynyl)-2-(2,3-dihydro-[1,4]dioxino[2,3-b]pyridin-2-ylmethoxy)-6,7-dihydro-pyrimido[6,1-a]isoquinolin-4-one]	100 to 500
CC(C)CC(O)C#Cc1ccc2c(c1)CCn1c-2cc(OCC2COc3ncccc3O2)nc1=O (stereo not shown) [compound 185, 2-(2,3-dihydro-[1,4]dioxino[2,3-b]pyridin-2-ylmethoxy)-9-(3-hydroxy-5-methyl-hex-1-ynyl)-6,7-dihydro-pyrimido[6,1-a]isoquinolin-4-one]	0.01 to 100
CCC(O)(C#Cc1ccc2c(c1)CCn1c-2cc(OCC2COc3ncccc3O2)nc1=O)CC (stereo not shown) [compound 186, 2-(2,3-dihydro-[1,4]dioxino[2,3-b]pyridin-2-ylmethoxy)-9-(3-ethyl-3-hydroxy-pent-1-ynyl)-6,7-dihydro-pyrimido[6,1-a]isoquinolin-4-one]	0.01 to 100
CC(O)(C#Cc1ccc2c(c1)CCn1c-2cc(OCC2COc3ncccc3O2)nc1=O)c1ccccc1 (stereo not shown) [compound 187, 2-(2,3-Dihydro-[1,4]dioxino[2,3-b]pyridin-2-ylmethoxy)-9-(3-hydroxy-3-phenyl-but-1-ynyl)-6,7-dihydro-pyrimido[6,1-a]isoquinolin-4-one]	0.01 to 100
CCCCNCC#Cc1ccc2c(c1)CCn1c-2cc(OCC2COc3ncccc3O2)nc1=O (stereo not shown) [compound 191, 9-(3-butylamino-prop-1-ynyl)-2-(2,3-dihydro-[1,4]dioxino[2,3-b]pyridin-2-ylmethoxy)-6,7-dihydro-pyrimido[6,1-a]isoquinolin-4-one]	100 to 500
O=c1nc(OCC2COc3ncccc3O2)cc2n1CCc1cc(C#CCNc3ccccc3)ccc1-2 (stereo not shown) [compound 194, 2-(2,3-dihydro-[1,4]dioxino[2,3-b]pyridin-2-ylmethoxy)-9-(3-phenylamino-prop-1-ynyl)-6,7-dihydro-pyrimido[6,1-a]isoquinolin-4-one]	0.01 to 100
O=C(NC1CCOCC1)c1ccc2c(c1)CCn1c-2cc(OCC2COc3ncccc3O2)nc1=O (stereo not shown) [compound 195, 2-(2,3-dihydro-[1,4]dioxino[2,3-b]pyridin-2-ylmethoxy)-4-oxo-6,7-dihydro-4H-pyrimido[6,1-a]isoquinoline-9-carboxylic acid (tetrahydro-pyran-4-yl)-amide]	100 to 500
O=c1nc(OCC2COc3ncccc3O2)cc2n1CCc1cc(CN3CCCC3)ccc1-2 (stereo not shown) [compound 197, 2-(2,3-dihydro-[1,4]dioxino[2,3-b]pyridin-2-ylmethoxy)-9-pyrrolidin-1-ylmethyl-6,7-dihydro-pyrimido[6,1-a]isoquinolin-4-one]	100 to 500
CCNC1(C#Cc2ccc3c(c2)CCn2c-3cc(OCC3COc4ncccc4O3)nc2=O)COC1 (stereo not shown) [compound 201, 2-(2,3-dihydro-[1,4]dioxino[2,3-b]pyridin-2-ylmethoxy)-9-(3-ethylamino-oxetan-3-ylethynyl)-6,7-dihydro-pyrimido[6,1-a]isoquinolin-4-one]	100 to 500
CC(C)C1CC(COc2cc3n(c(=O)n2)CCc2cc(C#CC4CC4)ccc2-3)O1 (stereo not shown) [compound 203, 9-cyclopropylethynyl-2-(4-isopropyl-oxetan-2-ylmethoxy)-6,7-dihydro-pyrimido[6,1-a]isoquinolin-4-one]	500 to 1000
